Source: ChEMBL document CHEMBL2074233, “Expression and pharmacological profile of the human organic cation transporters hOCT1, hOCT2 and hOCT3” (Br J Pharmacol, 2002)

Assays:
[1] = biological target: T1, Solute carrier family 22 member 1 (Homo sapiens, UniProt O15245); assay: TP_TRANSPORTER: inhibition of MPP+ uptake (MPP+: 0.025 uM) in OCT1-expressing HEK293 cells
T1 sequence (O15245 whole entry): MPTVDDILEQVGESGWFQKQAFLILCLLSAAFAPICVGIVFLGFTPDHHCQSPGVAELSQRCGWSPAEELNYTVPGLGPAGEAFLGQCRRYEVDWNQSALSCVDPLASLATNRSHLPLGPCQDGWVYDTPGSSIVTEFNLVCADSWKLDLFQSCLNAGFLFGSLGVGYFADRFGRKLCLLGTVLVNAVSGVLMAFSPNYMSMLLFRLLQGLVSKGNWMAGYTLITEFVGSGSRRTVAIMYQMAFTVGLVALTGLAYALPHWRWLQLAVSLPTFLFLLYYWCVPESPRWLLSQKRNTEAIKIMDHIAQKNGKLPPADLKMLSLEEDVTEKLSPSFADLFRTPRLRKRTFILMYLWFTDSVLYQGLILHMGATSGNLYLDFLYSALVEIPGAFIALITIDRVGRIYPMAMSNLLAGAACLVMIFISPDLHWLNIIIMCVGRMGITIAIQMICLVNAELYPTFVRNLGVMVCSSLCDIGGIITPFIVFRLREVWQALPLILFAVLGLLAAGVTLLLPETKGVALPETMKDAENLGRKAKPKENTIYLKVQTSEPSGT

[2] = biological target: T2, Solute carrier family 22 member 3 (Homo sapiens, UniProt O75751); assay: TP_TRANSPORTER: inhibition of MPP+ uptake (MPP+: 0.025 uM) in OCT3-expressing HEK293 cells
T2 sequence (O75751 whole entry): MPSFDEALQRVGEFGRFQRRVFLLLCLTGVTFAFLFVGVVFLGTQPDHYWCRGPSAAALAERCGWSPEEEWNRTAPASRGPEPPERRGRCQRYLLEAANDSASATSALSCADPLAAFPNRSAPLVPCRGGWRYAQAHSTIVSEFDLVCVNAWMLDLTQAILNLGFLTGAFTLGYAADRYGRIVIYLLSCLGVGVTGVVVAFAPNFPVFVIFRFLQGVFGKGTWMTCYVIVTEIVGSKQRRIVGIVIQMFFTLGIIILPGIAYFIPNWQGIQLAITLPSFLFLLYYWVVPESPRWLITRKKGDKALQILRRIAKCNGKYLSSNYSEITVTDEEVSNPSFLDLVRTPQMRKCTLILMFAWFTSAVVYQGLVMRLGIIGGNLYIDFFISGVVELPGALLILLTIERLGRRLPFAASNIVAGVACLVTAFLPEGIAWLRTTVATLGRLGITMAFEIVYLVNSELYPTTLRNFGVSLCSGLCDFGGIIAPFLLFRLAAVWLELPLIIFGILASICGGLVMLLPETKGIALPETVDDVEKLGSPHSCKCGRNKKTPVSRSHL

[3] = biological target: T3, Solute carrier family 22 member 2 (Homo sapiens, UniProt O15244); assay: TP_TRANSPORTER: inhibition of MPP+ uptake (MPP+: 0.025 uM) in OCT2-expressing HEK293 cells
T3 sequence (O15244 whole entry): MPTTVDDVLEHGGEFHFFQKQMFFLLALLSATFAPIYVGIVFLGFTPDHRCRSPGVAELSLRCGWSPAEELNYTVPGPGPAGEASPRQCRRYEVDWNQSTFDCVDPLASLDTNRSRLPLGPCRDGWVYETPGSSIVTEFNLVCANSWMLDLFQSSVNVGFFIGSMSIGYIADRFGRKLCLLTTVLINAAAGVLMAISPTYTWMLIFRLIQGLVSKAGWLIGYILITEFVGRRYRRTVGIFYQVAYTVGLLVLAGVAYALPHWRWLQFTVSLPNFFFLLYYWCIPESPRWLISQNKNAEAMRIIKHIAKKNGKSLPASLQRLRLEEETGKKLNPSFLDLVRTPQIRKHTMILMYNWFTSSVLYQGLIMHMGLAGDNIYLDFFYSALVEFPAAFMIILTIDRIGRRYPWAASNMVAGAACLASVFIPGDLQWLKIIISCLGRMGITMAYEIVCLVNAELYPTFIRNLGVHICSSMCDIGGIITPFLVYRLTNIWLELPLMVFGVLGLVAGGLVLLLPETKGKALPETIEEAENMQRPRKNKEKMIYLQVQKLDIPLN

Compound | IC50 [1] [nM] | IC50 [2] [nM] | IC50 [3] [nM]
CN(CCCl)C1c2ccccc2-c2ccccc21 | > 300 | 50 | 100
CC(COc1ccccc1)N(CCCl)Cc1ccccc1 (stereo not given) [PHENOXYBENZAMINE] | 2720 | 6130 | –
CC(=O)[C@H]1CC[C@H]2[C@@H]3CCC4=CC(=O)CC[C@]4(C)[C@H]3CC[C@]12C [PROGESTERONE] | 3050 | 4280 | –
COc1cc(C(O)CNC(C)C)ccc1O (stereo not given) [METIPRENALINE] | > 100000 | 4380 | > 100000
CCN1/C(=C/c2ccc3ccccc3[n+]2CC)C=Cc2ccccc21 | 980 | 90 | 1130
C[C@]12CC[C@@H]3c4ccc(O)cc4CC[C@H]3[C@@H]1CC[C@@H]2O [ESTRADIOL] | 5730 | 2880 | –
C[C@]12C[C@H](O)[C@H]3[C@@H](CCC4=CC(=O)CC[C@@]43C)[C@@H]1CC[C@@H]2C(=O)CO [CORTICOSTERONE] | 21700 | 290 | 34200
COc1cc2nc(N3CCN(C(=O)c4ccco4)CC3)nc(N)c2cc1OC [PRAZOSIN] | 1840 | 12600 | –
